# Measured values: publication PMC10321483 (Chemical Science, 2023)
# “And” between values parts separate entries of the source, which are not always exact repeats. Identical values can stand only once. Like-named read-outs stand apart in the source and are kept apart here.
# How the values were obtained:
# [1] = biological target: T1, LdtMt2 (Mycobacterium tuberculosis, UniProt I6Y9J2); assay: biochemical; type: biochemical; design: made in house; host or cells: E. coli; details: for IC50: Table S5 HTS hits, 30 minute inhibitor pre-incubation, two independent repeats, read-out: pIC50 LdtMt2 (converted)
# T1 sequence (I6Y9J2 56-408): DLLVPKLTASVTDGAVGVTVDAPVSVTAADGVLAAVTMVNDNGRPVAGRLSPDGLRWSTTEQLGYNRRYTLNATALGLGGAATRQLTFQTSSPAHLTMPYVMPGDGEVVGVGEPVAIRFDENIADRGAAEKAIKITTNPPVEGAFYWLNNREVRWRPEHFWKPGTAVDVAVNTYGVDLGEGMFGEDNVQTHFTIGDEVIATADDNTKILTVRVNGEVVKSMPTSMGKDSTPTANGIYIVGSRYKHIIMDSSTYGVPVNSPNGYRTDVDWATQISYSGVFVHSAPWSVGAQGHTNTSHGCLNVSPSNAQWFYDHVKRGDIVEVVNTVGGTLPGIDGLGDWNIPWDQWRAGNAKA
# [2] = biological target: T1, LdtMt2; assay: Rate constant of covalent target inactivation (kinact/KI), endpoint competition assay with probe 2; type: biochemical; design: made in house; host or cells: E. coli
# [3] = biological target: T1, LdtMt2; assay: biochemical; type: binding; design: made in house; host or cells: E. coli; details: for ΔTm at 500 µM: read-out: ΔTm: difference in melting point of LdtMt2 relative to unreacted LdtMt2 (43.8 °C)
# Description: LdtMt2 (5 μM) was incubated with the inhibitor (500 μM) in assay buffer (50 mM tris pH 7.5) for 30 minutes at room temperature in 96-well white PCR plates (25 μL final volume, Starlab). SYPRO Orange (final concentration 6×, according to manufacturer's definition, Invitrogen) was then added and the plate was sealed using a transparent plastic film (Polyolefin StarSeal, Starlab). Fluorescence was monitored (with λex = 492 nm and λem = 610 nm) using a CFX96 Touch Real-Time PCR Detection System (Bio-Rad), while the temperature was increased from 20 to 95 °C in increments of 0.2 °C. Melting temperatures (Tms) were determined using the CFX Maestro Software (Bio-Rad).
# [4] = biological target: T2, BlaC (Mycobacterium tuberculosis, UniProt P9WKD3); assay: BlaC fluorogenic inhibition assay with FC5 (dose-response); type: biochemical; details: Table S5 HTS hits, 30 minute inhibitor pre-incubation, two independent repeats; for IC50: pIC50 BlaC
# T2 construct: made in house; host or cells: E. coli
# T2 sequence (P9WKD3 35-307): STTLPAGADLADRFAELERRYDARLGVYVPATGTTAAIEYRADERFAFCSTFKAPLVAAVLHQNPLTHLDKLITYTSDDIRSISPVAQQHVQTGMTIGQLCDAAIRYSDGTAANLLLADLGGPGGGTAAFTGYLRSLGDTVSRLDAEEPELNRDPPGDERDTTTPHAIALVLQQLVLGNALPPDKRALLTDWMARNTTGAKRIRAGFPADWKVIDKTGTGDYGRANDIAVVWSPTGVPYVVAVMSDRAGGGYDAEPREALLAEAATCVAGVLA
# Description: Two types of controls were used. […] In control 2, the BlaC mixture was substituted with the assay buffer. This mixture was incubated for 30 minutes at room temperature without shaking. […] Data were analysed using ActivityBase (IDBS).
# [5] = system: M. tuberculosis (strain H37Rv) growth in THP1 cells; assay: Intracellular assay: Mtb H37Rv-Luc in THP-1 macrophages; type: cell-based, Mycobacterium tuberculosis; details: 5 days, extrapolated from dose-response curve
# [6] = system: M. tuberculosis (strain H37Rv); assay: Extracellular assay: M. tuberculosis H37Rv in medium under replicating conditions; type: cell-based, Mycobacterium tuberculosis
# [7] = Intrinsic thiol reactivity (kchem), competition with probe 2 for L-glutathione; type: physicochemical
# [8] = system: HepG2 cells; assay: HepG2 cytotoxicity assay (CellTiter Glo); type: cell-based; details: 48 h, ATP read-out
# Description: Solutions of the test compounds (250 nL per well; 11 serial dilutions of 1/3 with starting concentration 100 μM) were dispensed in tissue-culture treated black clear-bottomed 384-well plates (Greiner, cat. no. 781091) with an Echo 555 instrument. 25 μL of HepG2 (ATCC HB-8065) cells (∼3000 cells per well) grown to confluency in Eagle's Minimal Essential Medium (MEM) supplemented with 10% (v/v) heat-inactivated FBS, 1% (v/v) non-essential amino acids (NEAA), and 1% (v/v) penicillin/streptomycin were added to each well. Plates were incubated at 37 °C with 20% O2 and 5% CO2 for 48 h. The plates were then equilibrated to room temperature. ATP levels, measured with CellTiter Glo kit (Promega), were used as cell viability read-out. 25 μL of CellTiter Glo substrate dissolved in the buffer was added to each well. Plates were incubated at room temperature for 10 min and read on ViewLux (PerkinElmer) […].
# [9] = 100 nM LdtMt2, 10 µM probe 2, 3 h incubation, n=4
# [10] = 5 µM LdtMt2, 500 µM inhibitor, SYPRO Orange, 50 mM Tris pH 7.5
# [11] = 100 nM LdtMt2, 10 µM probe 2, 3 h incubation, n=4, read-out: kinact/KI
# [12] = Table S5, L-glutathione 500 nM, probe 2 10 µM, 15 h
SMILES,LE (ligand efficiency) [1],"kinact/KI [2, 9]",ΔTm: difference in melting point of LdtMt2 relative to unreacted LdtMt2 (43.8 °C) [3],"Tm: melting point of LdtMt2 after pre-incubation with the compound ([3]; pH 7.5, in °C (unit assumed))",IC50 [4],"LE (ligand efficiency) ([1]; Table S5, for LdtMt2)",IC50 [1],ΔTm at 500 µM [3],pIC50 BlaC [4],other results
N#Cn1c(-c2ccc(-c3nccs3)cc2)nc2ccccc21 [Compound 29],0.51,1164 ± 105 M⁻¹ s⁻¹,-0.9,42.9 ± 0.19,–,–,–,–,–,–
N#Cn1c(-c2ccc(F)cc2C(F)(F)F)nc2ccccc21 [Compound 22],–,–,–,–,> 100000 nM,0.51,29.5 nM,-1.3 °C,–,"kinact/KI [2]: 55.1 ± 3 M⁻¹ s⁻¹; Tm: melting point of LdtMt2 after pre-incubation with the compound [3, 10]: 42.5 ± 0.09 °C"
Cc1ccc(C=CC(=O)Nc2ccc(S(N)(=O)=O)cc2)o1 [Compound 9],0.53,90.7 ± 4.7 M⁻¹ s⁻¹,–,–,–,–,–,–,–,Tm: melting point of LdtMt2 after pre-incubation with the compound ([3]; pH 7.5): 43.1 ± 0.09 °C
N#CN1CCCN1C(=O)OCc1ccc(Cl)c(Cl)c1 [Compound 37],0.59,8.44 ± 1.2 M⁻¹ s⁻¹,-1.5,42.3 ± 0.09,–,–,–,–,–,–
N#Cn1c(-c2cnc(-c3cccs3)nc2)nc2ccccc21 [Compound 31],–,–,–,–,11200 nM,0.51,47.9 nM,-1.7 °C,–,"kinact/KI [2, 11]: 609 ± 11 M⁻¹ s⁻¹; Tm: melting point of LdtMt2 after pre-incubation with the compound [3, 10]: 42.1 ± 0.10 °C"
N#Cn1c(-c2cncnc2)nc2ccccc21 [Compound 25],0.66,77.5 ± 6.0 M⁻¹ s⁻¹,–,–,–,–,–,–,< 4.0,–
Cc1ccc(C=CC(=O)Nc2ccccc2C(N)=O)o1 [Compound 11],0.56,172 ± 6.0 M⁻¹ s⁻¹,+0.2,44.0 ± 0.16,–,–,–,–,< 4.0,–
N#Cn1c(-c2ccncc2)nc2ccc(-c3ccncc3)cc21 [Compound 34],0.49,68.4 ± 2.7 M⁻¹ s⁻¹,-1.7,42.1 ± 0.09,–,–,–,–,< 4.0,–
COc1ccc(COC(=O)C2N3C(=O)C(Br)C3S(=O)(=O)C2(C)C)cc1 (stereo not shown) [Compound 21],0.45,53.2 ± 4.7 M⁻¹ s⁻¹,-0.7,43.1 ± 0.09,–,–,–,–,–,–
O=C(NC(Cc1ccccc1)C(=O)CCl)c1cc(Cc2ccccc2)on1 (stereo not shown) [Compound 1],0.41,1152 ± 87 M⁻¹ s⁻¹,–,–,–,–,–,–,< 4.0,MIC50 intracellular [5]: 35.5 ± 4.9 µM and < 50 µM; MIC50 [6]: > 100 µM
O=C1CN(C(=O)C=Cc2ccco2)c2ccccc2N1 [Compound 12],0.56,–,+0.3,44.1 ± 0.09,–,–,–,–,< 4.0,"kchem (apparent intrinsic thiol reactivity) [7, 12]: 0.55 ± 0.11 M⁻¹ s⁻¹"
COc1ccc(CN2C(=O)C(=O)c3cc(Br)cc(C)c32)cc1OC [Compound 17],0.47,–,+3.0,46.8 ± 0.00,–,–,–,–,< 4.0,"kchem (apparent intrinsic thiol reactivity) [7, 12]: < 0.08 M⁻¹ s⁻¹; MIC50 [6]: > 100 µM; IC50 [8]: 53500 ± 6700 nM; pIC50, 0 min [1]: 6.48 ± 0.14; pIC50, 10 min [1]: 6.33 ± 0.14; pIC50, 60 min [1]: 6.28 ± 0.45; pIC50, 120 min [1]: 6.45 ± 0.26"
NC(=O)C=CC(=O)Nc1ccc(Cl)cc1 [Compound 13],–,–,–,–,> 100000 nM,0.75,417 nM,1 °C,–,"kinact/KI [2, 11]: 6.48 ± 0.11 M⁻¹ s⁻¹; Tm: melting point of LdtMt2 after pre-incubation with the compound [3, 10]: 44.8 ± 0.00 °C"
CCC(C)C(NC(=O)OCc1ccccc1)C(=O)CCl (stereo not shown) [Compound 2],–,–,–,–,> 100000 nM,0.56,77.6 nM,-0.1 °C,–,"kinact/KI [2]: 68.4 ± 3.5 M⁻¹ s⁻¹; Tm: melting point of LdtMt2 after pre-incubation with the compound [3, 10]: 43.7 ± 0.09 °C"
N#Cn1c(-c2ccnnc2)nc2ccccc21 [Compound 24],0.66,158 ± 5.7 M⁻¹ s⁻¹,–,42.0 ± 0.00,–,–,–,–,< 4.0,–
CC(C)(C)OC(=O)Nc1ccc(N2C(=O)C=CC2=O)cc1 [Compound 6],0.52,127 ± 7.7 M⁻¹ s⁻¹,+1.7 °C,–,–,–,–,–,–,Tm: melting point of LdtMt2 after pre-incubation with the compound ([3]; pH 7.5): 45.5 ± 0.09 °C
COc1cccc(NC(=O)/C(Cl)=C(\Cl)S(=O)(=O)Cc2ccccc2Cl)n1 [Compound 8],–,–,–,–,> 100000 nM,0.43,69.2 nM,0.7 °C,–,kinact/KI [2]: 91.6 ± 2 M⁻¹ s⁻¹
O=c1c2cc(Cl)c(Cl)cc2sn1CCO [Compound 15],–,–,–,–,427 nM,0.74,10.2 nM,-0.3 °C,–,"MIC50 ([6]; Mycobacterium tuberculosis): > 100 µM; IC50 ([8]; Homo sapiens, HepG2): 9550 ± 220 nM; Tm: melting point of LdtMt2 after pre-incubation with the compound [3, 10]: 43.5 ± 0.09 °C"
N#Cn1c(-c2ccncc2)nc2ccc(-c3ccco3)cc21 [Compound 33],0.51,71.8 ± 1.1 M⁻¹ s⁻¹,-0.5,43.3 ± 0.09,–,–,–,–,–,–
Cc1nc(-c2ccc(-c3nc4ccccc4n3C#N)cc2)cs1 [Compound 30],0.49,236 ± 9.5 M⁻¹ s⁻¹,-1.6,42.2 ± 0.00,–,–,–,–,–,MIC50 [6]: > 100 µM; IC50 [8]: 3980 ± 100 nM
N#Cn1c(-c2cc(F)cc(C(F)(F)F)c2)nc2ccccc21 [Compound 23],0.51,265 M⁻¹ s⁻¹,-1.3,42.5 ± 0.09,–,–,–,–,< 4.0,MIC50 [6]: > 100 µM; IC50 [8]: 28800 nM
N#Cn1c(-c2ccc(OC3CCOCC3)cc2)nc2ccccc21 [Compound 32],0.47,86.3 ± 2.6 M⁻¹ s⁻¹,-1.5,42.3 ± 0.09,–,–,–,–,–,–
N#Cn1cnc2ccccc21 [Compound 40],–,–,–,–,–,–,–,–,–,"kchem (apparent intrinsic thiol reactivity) ([7]; Table S10 known cyanating compounds, unit printed in b38 only): 0.90 ± 0.05 M⁻¹ s⁻¹ and 0.90 M⁻¹ s⁻¹; pIC50 LdtMt2 [1]: 6.31 ± 0.03"
CS(=O)(=O)c1ccc(F)c(N2C(=O)C=CC2=O)c1 [Compound 4],–,–,–,–,60300 nM,0.62,87.1 nM,1.8 °C,–,"kinact/KI [2]: 36.5 ± 7.9 M⁻¹ s⁻¹; Tm: melting point of LdtMt2 after pre-incubation with the compound [3, 10]: 45.6 ± 0.28 °C"
O=C1C=CC(=O)N1c1ccccc1 [Compound 3],–,–,–,–,9330 nM,0.86,70.8 nM,1.2 °C,–,"kinact/KI [2]: 3990 ± 356 M⁻¹ s⁻¹; Tm: melting point of LdtMt2 after pre-incubation with the compound [3, 10]: 45.0 ± 0.16 °C"
N#Cn1c(-c2ccc3nccnc3c2)nc2ccccc21 [Compound 26],0.53,65.0 ± 4.4 M⁻¹ s⁻¹,-2.1,41.7 ± 0.09,–,–,–,–,–,lowered the melting temperature of LdtMt2 by [3]: 2.1 °C
